Assay results from article PMC3138047 (Evidence-based Complementary and Alternative Medicine : eCAM, 2011).

How the values were obtained:
Assay in all cases: [3H]-dTTP incorporation into poly(dA)/oligo(dT)[…]
Assay type in all cases: biochemical
calf pol α = molecular target: T1, calf pol α (Bos taurus, UniProt A0AAA9THK8); conditions: read-out: relative pol activity at 100 μM
T1 construct: gene POLA1; with DNA polymerase alpha subunit B; DNA primase small subunit; DNA primase large subunit

human pol λ [1] = molecular target: T2, human pol λ (Homo sapiens, UniProt Q9UGP5); conditions: read-out: relative pol activity at 100 μM
T2 construct: gene POLL; recombinant, His-tagged
T2 sequence (Q9UGP5 1-575): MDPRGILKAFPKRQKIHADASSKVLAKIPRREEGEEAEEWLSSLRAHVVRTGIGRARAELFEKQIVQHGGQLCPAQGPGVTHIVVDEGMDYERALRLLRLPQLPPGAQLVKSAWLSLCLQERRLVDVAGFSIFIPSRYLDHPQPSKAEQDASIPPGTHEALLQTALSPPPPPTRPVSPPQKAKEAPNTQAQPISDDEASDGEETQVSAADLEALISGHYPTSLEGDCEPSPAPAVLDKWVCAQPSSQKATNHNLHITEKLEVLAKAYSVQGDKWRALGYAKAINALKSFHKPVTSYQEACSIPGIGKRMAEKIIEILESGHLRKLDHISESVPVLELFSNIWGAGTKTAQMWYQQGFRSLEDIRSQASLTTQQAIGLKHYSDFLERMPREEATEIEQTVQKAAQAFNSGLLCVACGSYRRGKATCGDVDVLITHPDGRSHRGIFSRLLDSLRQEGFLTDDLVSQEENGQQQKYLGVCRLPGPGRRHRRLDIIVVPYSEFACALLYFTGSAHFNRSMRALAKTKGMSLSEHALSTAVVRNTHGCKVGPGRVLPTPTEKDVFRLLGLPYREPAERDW

human pol κ [2] = molecular target: T3, human pol κ (Homo sapiens, UniProt Q9UBT6); conditions: read-out: relative pol activity at 100 μM
T3 construct: gene POLK; truncated, residues 1-560, C-terminal 6xHis tag, produced in E. coli
T3 sequence (Q9UBT6 1-560): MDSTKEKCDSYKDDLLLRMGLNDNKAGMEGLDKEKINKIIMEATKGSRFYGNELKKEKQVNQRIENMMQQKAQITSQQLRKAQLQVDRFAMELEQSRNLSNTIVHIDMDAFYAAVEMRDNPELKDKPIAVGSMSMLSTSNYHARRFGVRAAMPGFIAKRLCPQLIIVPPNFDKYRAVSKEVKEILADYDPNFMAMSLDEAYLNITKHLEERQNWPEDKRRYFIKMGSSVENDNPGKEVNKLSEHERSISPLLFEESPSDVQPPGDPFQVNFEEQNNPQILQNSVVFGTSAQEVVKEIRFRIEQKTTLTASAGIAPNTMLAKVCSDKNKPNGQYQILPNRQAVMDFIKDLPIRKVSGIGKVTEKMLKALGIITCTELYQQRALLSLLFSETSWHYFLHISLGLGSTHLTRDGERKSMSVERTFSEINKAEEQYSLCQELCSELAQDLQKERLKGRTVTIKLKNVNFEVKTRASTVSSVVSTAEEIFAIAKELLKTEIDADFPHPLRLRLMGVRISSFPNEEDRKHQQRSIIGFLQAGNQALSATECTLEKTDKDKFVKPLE

human pol κ [3] = molecular target: T3, human pol κ
human pol λ [4] = molecular target: T2, human pol λ
human pol γ = molecular target: T4, human pol γ (Homo sapiens, UniProt P54098)
T4 construct: gene POLG
T4 sequence (P54098 1-1239): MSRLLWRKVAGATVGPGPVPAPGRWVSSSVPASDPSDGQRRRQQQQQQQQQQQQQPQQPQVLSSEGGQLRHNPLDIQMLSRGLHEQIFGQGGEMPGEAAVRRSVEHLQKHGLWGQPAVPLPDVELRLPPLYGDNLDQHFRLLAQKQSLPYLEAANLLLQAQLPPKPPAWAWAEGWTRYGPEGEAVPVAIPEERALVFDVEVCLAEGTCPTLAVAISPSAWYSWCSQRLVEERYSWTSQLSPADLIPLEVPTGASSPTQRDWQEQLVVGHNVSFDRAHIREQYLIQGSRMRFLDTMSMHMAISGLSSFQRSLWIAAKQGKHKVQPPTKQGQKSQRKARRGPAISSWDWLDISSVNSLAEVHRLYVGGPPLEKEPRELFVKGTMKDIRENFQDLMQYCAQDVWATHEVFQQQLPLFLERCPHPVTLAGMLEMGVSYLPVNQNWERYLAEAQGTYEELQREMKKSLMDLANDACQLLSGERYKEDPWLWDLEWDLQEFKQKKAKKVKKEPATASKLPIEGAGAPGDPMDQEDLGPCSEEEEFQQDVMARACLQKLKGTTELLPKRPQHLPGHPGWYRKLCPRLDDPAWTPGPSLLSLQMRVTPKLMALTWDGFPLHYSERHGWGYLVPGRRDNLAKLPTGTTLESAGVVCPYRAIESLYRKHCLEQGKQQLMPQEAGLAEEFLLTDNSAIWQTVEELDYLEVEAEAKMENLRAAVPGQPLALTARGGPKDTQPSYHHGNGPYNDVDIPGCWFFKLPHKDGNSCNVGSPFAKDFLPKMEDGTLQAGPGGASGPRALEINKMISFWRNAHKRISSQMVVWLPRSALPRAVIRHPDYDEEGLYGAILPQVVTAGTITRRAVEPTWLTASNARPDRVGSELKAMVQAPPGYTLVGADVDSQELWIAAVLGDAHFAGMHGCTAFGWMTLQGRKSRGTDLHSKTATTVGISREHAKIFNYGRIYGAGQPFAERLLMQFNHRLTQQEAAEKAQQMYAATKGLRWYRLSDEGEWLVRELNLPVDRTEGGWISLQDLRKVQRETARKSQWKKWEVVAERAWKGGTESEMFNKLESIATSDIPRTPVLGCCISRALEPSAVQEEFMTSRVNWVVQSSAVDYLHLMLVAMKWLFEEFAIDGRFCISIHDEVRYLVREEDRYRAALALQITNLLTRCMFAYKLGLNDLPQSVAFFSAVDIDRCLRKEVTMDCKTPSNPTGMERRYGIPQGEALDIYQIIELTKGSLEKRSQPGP

T1 sequence (A0AAA9THK8 1-1487): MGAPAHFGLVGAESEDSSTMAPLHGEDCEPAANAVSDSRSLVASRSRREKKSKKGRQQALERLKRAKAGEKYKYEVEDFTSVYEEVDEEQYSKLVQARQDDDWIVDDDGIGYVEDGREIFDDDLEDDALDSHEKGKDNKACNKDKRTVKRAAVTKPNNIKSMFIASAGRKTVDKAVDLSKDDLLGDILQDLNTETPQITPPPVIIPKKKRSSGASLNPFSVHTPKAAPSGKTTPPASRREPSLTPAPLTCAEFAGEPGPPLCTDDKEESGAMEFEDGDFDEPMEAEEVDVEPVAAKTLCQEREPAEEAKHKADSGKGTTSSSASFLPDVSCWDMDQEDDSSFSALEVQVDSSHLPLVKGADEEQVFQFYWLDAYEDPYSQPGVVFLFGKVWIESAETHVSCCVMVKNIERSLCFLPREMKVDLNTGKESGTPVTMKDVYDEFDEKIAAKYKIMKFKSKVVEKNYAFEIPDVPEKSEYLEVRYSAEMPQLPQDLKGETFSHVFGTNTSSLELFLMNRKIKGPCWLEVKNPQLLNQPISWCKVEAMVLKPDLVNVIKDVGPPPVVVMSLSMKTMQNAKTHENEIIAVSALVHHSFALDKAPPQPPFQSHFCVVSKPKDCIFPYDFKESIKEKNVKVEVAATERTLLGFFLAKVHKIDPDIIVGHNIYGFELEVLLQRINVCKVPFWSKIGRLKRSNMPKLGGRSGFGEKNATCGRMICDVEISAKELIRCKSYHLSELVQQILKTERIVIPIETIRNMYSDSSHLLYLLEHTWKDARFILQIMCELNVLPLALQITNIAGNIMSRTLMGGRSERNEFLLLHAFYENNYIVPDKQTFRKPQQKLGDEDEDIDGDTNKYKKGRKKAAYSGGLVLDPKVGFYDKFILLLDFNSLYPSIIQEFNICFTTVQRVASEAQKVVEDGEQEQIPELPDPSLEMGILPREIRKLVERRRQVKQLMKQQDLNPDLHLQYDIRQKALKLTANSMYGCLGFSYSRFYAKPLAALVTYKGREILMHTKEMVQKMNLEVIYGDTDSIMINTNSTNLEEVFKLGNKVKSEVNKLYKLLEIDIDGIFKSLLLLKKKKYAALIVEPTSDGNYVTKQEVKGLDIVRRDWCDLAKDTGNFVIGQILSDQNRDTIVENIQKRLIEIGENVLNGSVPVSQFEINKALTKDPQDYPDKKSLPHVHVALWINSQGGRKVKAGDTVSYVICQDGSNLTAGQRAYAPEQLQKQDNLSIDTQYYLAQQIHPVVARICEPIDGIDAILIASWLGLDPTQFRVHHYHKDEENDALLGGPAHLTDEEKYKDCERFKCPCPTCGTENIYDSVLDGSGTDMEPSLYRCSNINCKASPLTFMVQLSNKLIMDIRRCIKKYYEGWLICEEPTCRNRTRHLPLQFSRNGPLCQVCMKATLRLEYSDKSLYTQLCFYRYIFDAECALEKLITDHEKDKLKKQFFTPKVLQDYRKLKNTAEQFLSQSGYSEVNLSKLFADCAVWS
T1 sequence (Q58D13 whole entry partner): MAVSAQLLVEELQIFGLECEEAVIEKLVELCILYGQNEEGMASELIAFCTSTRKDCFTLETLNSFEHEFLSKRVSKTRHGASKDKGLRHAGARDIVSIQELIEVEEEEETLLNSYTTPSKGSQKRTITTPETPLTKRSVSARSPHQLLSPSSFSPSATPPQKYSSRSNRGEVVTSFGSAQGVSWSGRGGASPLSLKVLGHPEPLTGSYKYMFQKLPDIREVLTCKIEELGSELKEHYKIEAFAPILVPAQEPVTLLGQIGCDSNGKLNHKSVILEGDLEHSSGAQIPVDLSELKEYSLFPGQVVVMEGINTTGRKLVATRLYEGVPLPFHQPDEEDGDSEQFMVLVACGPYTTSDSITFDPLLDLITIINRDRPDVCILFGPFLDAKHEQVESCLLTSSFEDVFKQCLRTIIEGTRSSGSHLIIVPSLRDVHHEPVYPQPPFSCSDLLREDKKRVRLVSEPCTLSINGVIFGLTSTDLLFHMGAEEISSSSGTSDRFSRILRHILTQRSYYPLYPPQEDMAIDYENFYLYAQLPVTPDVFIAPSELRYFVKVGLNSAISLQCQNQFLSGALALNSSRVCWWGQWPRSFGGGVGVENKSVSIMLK
T1 sequence (A0A3Q1MF00 1-418 partner): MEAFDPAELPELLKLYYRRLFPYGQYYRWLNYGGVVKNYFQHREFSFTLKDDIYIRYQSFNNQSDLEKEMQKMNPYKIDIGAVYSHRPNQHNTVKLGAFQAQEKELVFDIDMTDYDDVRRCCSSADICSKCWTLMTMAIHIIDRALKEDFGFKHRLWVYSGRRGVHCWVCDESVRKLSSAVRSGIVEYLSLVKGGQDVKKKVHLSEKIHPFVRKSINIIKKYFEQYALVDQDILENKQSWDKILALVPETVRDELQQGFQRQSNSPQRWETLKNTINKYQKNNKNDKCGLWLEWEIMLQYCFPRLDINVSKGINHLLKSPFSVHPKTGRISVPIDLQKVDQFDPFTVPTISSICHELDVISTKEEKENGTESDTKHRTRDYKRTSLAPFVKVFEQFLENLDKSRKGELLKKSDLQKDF
T1 sequence (A0JNF4 1-506 partner): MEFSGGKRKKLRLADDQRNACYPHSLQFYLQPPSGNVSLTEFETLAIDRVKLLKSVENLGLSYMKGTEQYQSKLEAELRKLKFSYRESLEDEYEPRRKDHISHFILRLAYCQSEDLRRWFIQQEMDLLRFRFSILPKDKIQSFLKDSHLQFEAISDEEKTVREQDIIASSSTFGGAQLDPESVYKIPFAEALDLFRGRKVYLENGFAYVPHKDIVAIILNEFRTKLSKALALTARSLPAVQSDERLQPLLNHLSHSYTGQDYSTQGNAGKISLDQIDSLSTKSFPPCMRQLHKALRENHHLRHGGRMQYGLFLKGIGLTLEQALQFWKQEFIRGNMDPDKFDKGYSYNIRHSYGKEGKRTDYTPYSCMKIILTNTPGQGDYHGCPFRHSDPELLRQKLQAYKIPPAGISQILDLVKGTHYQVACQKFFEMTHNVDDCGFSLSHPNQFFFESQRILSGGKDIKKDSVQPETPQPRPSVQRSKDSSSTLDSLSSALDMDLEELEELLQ

activity at 100 µM (calf pol α) [%]	activity at 100 µM (human pol λ [1]) [%]	activity at 100 µM (human pol κ [2]) [%]	IC50 (human pol κ [3]) [µM]	IC50 (human pol λ [4]) [µM]	IC50 (human pol γ) [µM]	SMILES
< 50	< 50	< 50				CC1(C)[C@@H](O[C@H]2O[C@H](C(=O)O)[C@@H](O)[C@H](O)[C@H]2O[C@@H]2O[C@H](C(=O)O)[C@@H](O)[C@H](O)[C@H]2O)CC[C@]2(C)[C@H]3C(=O)C=C4[C@@H]5C[C@@](C)(C(=O)O)CC[C@]5(C)CC[C@@]4(C)[C@]3(C)CC[C@@H]12 [compound 1, 3-O-(2-O-β-D-glucopyranuronosyl-α-D-glucopyranuronosyl)-18β-glycyrrhetinic acid]
< 50	< 50					CC1(C)[C@@H](O[C@@H]2O[C@H](C(=O)O)[C@@H](O)[C@H](O)[C@H]2O[C@@H]2O[C@H](C(=O)O)[C@@H](O)[C@H](O)[C@H]2O)CC[C@]2(C)[C@H]3C(=O)C=C4[C@@H]5C[C@@](C)(C(=O)O)CC[C@]5(C)CC[C@@]4(C)[C@]3(C)CC[C@@H]12 [compound 2, dipotassium glycyrrhizate]
			15.8	13.7	19.3	CC1(C)[C@@H](O)CC[C@]2(C)[C@H]3C(=O)C=C4[C@@H]5C[C@@](C)(C(=O)O)CC[C@]5(C)CC[C@@]4(C)[C@]3(C)CC[C@@H]12 [compound 3, Glycyrrhetinic acid]
